Reference: patent US20220168329A1, “COMBINATORIAL DRUG TREATMENT OF CANCER” (University of Virginia Patent Foundation, priority 2019, published 2022)

Legend:
PRMT5 = test: Western blot of global SDMA in cells; format: cell-based, Human; conditions: increasing concentrations (nM)
Protocol: (§1) Cells were washed with cold PBS and lysed in RIPA buffer (Cell Signaling Technology). After centrifugation at 14,000 rpm for 15 minutes at 4° C., the supernatants were collected and the protein concentrations were measured using BCA protein assay reagent (BIO-RAD). Subsequently, equal amounts of proteins were separated in NuPAGE 4-12% Bis-Tris gradient gel (Invitrogen #NP0335) and transferred onto nitrocellulose membranes (Invitrogen #B301002). After blocking with 5% milk, the membranes were then probed at 4° C. overnight with various primary antibodies: anti-γ-H2AX (Cell Signaling), anti-phospho-Chk1 (Ser345) (Cell Signaling), anti-phospho-Chk2 (Thr68) (Cell Signaling), anti-PRMT5 (Abcam), anti-RPA1 (Abcam), anti-phospho-RPA2 (S4/S8) (Bethyl Laboratories), anti-RPA2 (Ab-2) (Calbiochem), cleaved caspase-3 (Cell Signaling), and anti-β-actin (Sigma); washed with TBST (20 mM Tris, 150 mM NaCl, 0.1% polysorbate 20; pH 7.6); and incubated with horseradish peroxidase (HRP)-conjugated secondary antibodies (Promega) at room temperature for 1 hour. Finally, after washing with TBST, the antibody-bound membranes were treated with enhanced chemiluminescent Western blot detection reagents (GE Healthcare) and visualized with an x-ray film (GE Healthcare).

WT and PRMT5 KO cells = test: Western blot of Caspase-3 cleavage (apoptosis) in WT and PRMT5 KO cells; format: cell-based, Human; conditions: WT vs PRMT5 KO cells, increasing doses (nM)
Protocol: as §1

HeLa DR13-9 cell line = test: I-SceI reporter assay, homology-directed repair (HDR); format: cell-based, Human; conditions: Gem 250 nM and/or EPZ015666 500 nM, 24 hours
Protocol: (§2) NHEJ and HR assays to examine the repair efficiency of I-SceI inducible-double strand breaks (DSBs) were performed using NHEJ/DsRed293B and HeLa DR13-9 cell lines, respectively, as previously described with slight modifications. Briefly, 3×10^5 cells were plated on 6-well dishes and 2 μg I-SceI expression vector […] was transfected using Lipofectamine2000 (Invitrogen). 24 hours post-transfection, the indicated amount of gemcitabine and/or EPZ015666 was incubated with cells for 24 hours. The DsRed- and GFP-expressing cells were counted in flow cytometric analysis (BD FACS Calibur and CellQuest Pro) by the FL2 and FL1 channels for NHEJ and HR repair efficiency, respectively. […] To this end, we used I-SceI endonuclease-based genetic reporters where relative efficiency of DSB repair by either pathway could be robustly quantified. […] However, exogenous expression of I-SceI leads to a DSB repair and creation of either dsRED+ or GFP+ cells, which can be quantified to assess relative NHEJ or HDR repair efficiencies by quantifying the percentage of dsRED+ or GFP+ cells upon I-SceI expression. […] We then assessed whether PRMT5 inhibitor alone or in combination with Gem results in differential NHEJ activity. […]

NHEJ/DsRed293B cell line = test: I-SceI reporter assay, NHEJ; format: cell-based, Human; conditions: Gem 250 nM and/or EPZ015666 500 nM, 24 hours
Protocol: as §2

xenograft tumors = test: γ-H2AX and SDMA levels in extracted tumor tissues (IHC, Western blot); format: in vivo, mice
Protocol: as §1, with “Healthcare). We also extracted tumors to analyze their morphology and molecular structure through H&E and IHC for selected markers. […] To assess whether the combination treatment abolished PRMT5 function in vivo, we evaluated the overall levels of the γ-H2AX and the symmetric […] of arginine (SDMA) in WT tumors, PRMT5 KO tumors as well as single-agent and combination-treated WT tumors.” for “Healthcare).”

mPanc96 and PANC-1 cells = test: Crystal violet colony formation assay; format: cell-based, Human
Protocol: Pancreatic cancer cells were seeded in a flat-bottom 12-well plate (Corning) at a density of 1-2×10^3 cells per well. The following day, cells were treated with gemcitabine and EPZ015666 or EPZ015938 for two weeks. Culture media were replaced every week with fresh medium in the presence of drugs. Wells were washed with PBS, then stained for 30 min with crystal violet solution (0.4% crystal violet, 10% formaldehyde, 80% methanol). After staining, wells were washed once with PBS and water. The plate was dried out overnight and imaged using a scanner. Colonies were measured and analyzed with ImageJ (National Institutes of Health).

[1] = tested on: WT and PRMT5 knockout (KO) PDAC cells (mPanc96, PANC-1); test: MTT cell viability assay, WT vs PRMT5 KO clones; format: cell-based; conditions: Homo sapiens
Protocol: PDX366, mPanc96, and PANC-1 cells were seeded in a flat-bottom 96-well plate (Corning) in triplicate at a density of 1-2×10^3 cells per well. The following day, cells were treated with gemcitabine (GEMZAR; Eli Lilly) and EPZ015666 (GSK3235025; SelleckChem) or EPZ015938 (GSK3326595; ChemieTek) for 4-5 days prior to MTT (3-(4,5-dimethylthiazolyl)-2,5-diphenyltetrazolium bromide) to determine effects of drugs on cell viability. Culture media were replaced with fresh RPMI, which had 10% FBS and 10% MTT (5 mg/mL) and incubated for 4 hours in a humidified (37° C., 5% CO2) incubator. 100 μL MTT solvent (10% SDS in 0.01 M HCl) was added to each well, and cells were incubated overnight. The absorbance was read at 595 nm.
To better study the role of PRMT5 in the cellular response to Gem, we generated multiple single KO clones in two additional pancreatic cancer cell lines (mPanc96 and PANC-1) (FIG. 2A). […] However, the clones with even partial PRMT5 depletion were nearly an order of magnitude more sensitive to Gem compared to wild-type (WT) clones (4-5 μM vs. ˜50 μM IC50) as measured by cell viability assay (FIG. 2B).

Pancreatic cancer cells = test: BrdU incorporation flow cytometry cell cycle analysis; format: cell-based, Human; conditions: Gem 250 nM
Protocol: Pancreatic cancer cells were treated with gemcitabine and EPZ015666 or EPZ015938, incorporated with BrdU (Sigma) for 1 hour and then fixed by 70% ethanol. BrdU staining was performed according to the manufacturer's instructions (BD Biosciences, Franklin Lakes, N.J., USA). Briefly, the fixed cells were washed with PBS and then resuspended in 2 N HCl for 20 min to denature the DNA. After washing with 0.1 M Na2B4O7, pH 8.5, to stop acid denaturation, the cells were resuspended and washed with 180 μL 0.5% polysorbate 20 (Sigma) with 1% normal goat serum (NGS) (Dako, Glostrup, Denmark) in PBS. Then, the cells were incubated with Alexa Fluor 647-conjugated anti-BrdU (mAb) (Invitrogen) for 1 hour at room temperature in the dark. After washing with PBS, the cells were resuspended in 2 μg/mL propidium iodide (PI) (Sigma) in PBS plus RNase, incubated at 37° C. for 30 min in the dark, and then analyzed by FACSCalibur flow cytometer (Becton-Dickinson, San Jose, Calif., USA).

PDAC cells = test: Western blot of DNA damage and cell cycle checkpoint markers and RPA2; format: cell-based, Human; conditions: time-course, KO cells compared to WT cells
Protocol: as §1

mPanc96 cells [2] = test: γ-H2AX immunofluorescence staining; format: cell-based, Human
Protocol: Cells grown on glass coverslips (VWR) were rinsed with PBS, and then fixed in 4% formaldehyde for 15 min. The cells were subsequently treated with 0.2% Triton X-100 in PBS for 10 min. After blocking with 2% BSA in PBS containing 5% FBS at RT for 30 minutes, cells were incubated with an appropriate primary antibody γ-H2AX (Cell Signaling) for 2 hours. Then the cells were washed with PBS and incubated for 1 hour with secondary antibody [Alexa Fluor-488 goat anti-mouse immunoglobulin G (IgG) (H+L) conjugate or anti-rabbit IgG (H+L) conjugate (Invitrogen)]. After washing with PBS, the coverslips were dried, and then reversely covered onto slides (Fisher Scientific) by adding mounting medium with 4′,6-diamidino-2-phenylindole dihydrochloride (DAPI) (Vector Laboratories). A LSM-710 confocal microscope (Zeiss) was used to obtain fluorescence images.

mPanc96 cells [3] = test: Comet assay (DNA strand breaks); format: cell-based, Human; conditions: PRMT5 KO or PRMT5-inhibited cells treated with Gem vs WT and control-treated cells
Protocol: The comet assay measures DNA damage in individual cells. It was performed according to the instructions of the OxiSelect Comet Assay Kit (Cell Biolabs). Briefly, microscope slides were first covered with a normal melting point agarose to create a base layer. Then, 1-2×10^5 cells were embedded into 75 μL of low-melting-point agarose at 37° C. and the gel was cast over the first agarose layer. Then slides were immersed into a lysis buffer and kept for 1 hour at 4° C. After cell lysis, the slides were electrophoresed in alkaline electrophoresis buffer (300 mM NaOH, 1 mM EDTA, pH 13). The slides were then stained with Vista Green DNA dye. Comet tails were measured using Image J.

[4] = tested on: WT and PRMT5 KO mPanc96 tumors; test: Xenograft of WT and PRMT5 KO mPanc96 cells treated with Gem; format: in vivo, nude mice; conditions: Gem 50 mg/kg or 100 mg/kg i.p.
Protocol: To develop xenograft tumors, Control sgRNA infected WT cells and PRMT5-KO cells were subcutaneously injected into the dorsal flanks of 8 week-old nude mice, which were obtained from the Jackson Laboratory (Bar Harbor, Me., USA). When the tumors were visible (approximately 30 mm^3 in volume), the mice received respective gemcitabine treatments via intraperitoneal (i.p.) injection. After weekly monitoring, time to appearance of the tumor was recorded, and the tumor volume was measured by caliper. The tumor volume was calculated as follows: volume=longest tumor diameter×(shortest tumor diameter) 2/2. After 35 days of treatment, the mice were euthanized by CO2 inhalation, and the tumor tissues were collected for further analyses. […] Initially, we tested whether tumors formed by WT and PRMT5 KO cells were differentially sensitive to Gem treatment. To be able to better compare the tumors from these two genetic backgrounds, we injected 5×10^5 WT mPanc96 cells in the left flank and the same number of the PRMT5 KO cells in the right flank of the same mouse. This strategy enabled us to compare the two tumors grown in the same mouse. After one week of tumor formation, the mice were randomly divided into three groups where one received control, and the other two received two separate Gem doses (50 mg/kg or 100 mg/kg).

Row | Compound | global SDMA (PRMT5) | apoptosis (caspase-3 cleavage) (WT and PRMT5 KO cells) | HDR activity (HeLa DR13-9 cell line) | NHEJ activity (NHEJ/DsRed293B cell line) | overall SDMA levels in tumors (xenograft tumors; Western blot of tumor tissues) | growth inhibition activity on colony formation (mPanc96 and PANC-1 cells; single agent, compared with the other PRMT5 inhibitor) | IC50 ([1]; clones with even partial PRMT5 depletion (PRMT5 KO)) [µM] | IC50 ([1]; wild-type (WT) clones) [µM] | sensitivity to Gem in longer-term colony formation (mPanc96 and PANC-1 cells; PRMT5 KO clones compared to WT cells) | cell cycle position (Pancreatic cancer cells; PRMT5 KO cells compared to WT cells) | cell cycle position (Pancreatic cancer cells; WT cells, EPZ015666 500 nM) | phospho-Chk1, γ-H2AX and phospho-RPA2 activation (PDAC cells) | time to strong γ-H2AX foci post Gem treatment (mPanc96 cells [2]; PRMT5 KO cells, Gem 250 nM) [h] | time to similar levels of γ-H2AX foci (mPanc96 cells [2]; WT cells, same concentration of Gem) [h] | γ-H2AX foci formation levels (mPanc96 cells [2]; over 72 hours, PRMT5 KO vs WT cells, Gem treatment) | comet tail length (mPanc96 cells [3]) | tumor volume ([4]; PRMT5 KO tumors) | tumor volume ([4]; WT tumors) | γ-H2AX staining (IHC) in tumors (xenograft tumors; PRMT5 KO tumors vs WT tumors treated with Gem) | γ-H2AX in tumors (xenograft tumors; Western blot, PRMT5 KO tumors)
1 | O=C(NC[C@H](O)CN1CCc2ccccc2C1)c1cc(NC2COC2)ncn1 [EPZ015666] | significantly inhibits global SDMA | significant apoptosis (caspase-3 cleavage) selectively in WT cells but not in PRMT KO cells | significantly inhibits the HDR activity | significant increase in NHEJ activity | lower overall levels of SDMA | – | – | – | – | – | – | – | – | – | – | – | – | – | – | –
2 | CC(=O)N1CCC(Nc2cc(C(=O)NC[C@H](O)CN3CCc4ccccc4C3)ncn2)CC1 [EPZ015938] | – | – | – | – | – | substantially more growth inhibition activity | – | – | – | – | – | – | – | – | – | – | – | – | – | –
3 | Nc1ccn([C@@H]2O[C@H](CO)[C@@H](O)C2(F)F)c(=O)n1 [Gem, 2′,2′-difluoro 2′-deoxycytidine] | – | – | significantly inhibits the HDR activity | significant increase in NHEJ activity | – | – | 4 to 5 | ~50 | significantly more sensitive | significantly higher number of G2/M cells | partial delay in cell cycle with a substantial accumulation of cells in S-phase and partial increases in G2/M cells | sustained and stronger | 4 | 48 to 72 | significantly higher levels of γ-H2AX | significantly longer comet tail | most significant reduction of tumor volumes | notable reduction of WT tumors | significantly more γ-H2AX staining | significantly activated
